Test results reported in patent publication US20060025477A1, “Analogs of isovaleramide, a pharmaceutical composition including the same, and a method of treating central nervous system conditions or diseases” (priority 2004, published 2006).

Key:
[1] = tested on: Frings audiogenic seizure-susceptible mouse; assay: Frings audiogenic seizure assay (protection against sound-induced tonic hindlimb extension); assay type: in vivo; conditions: Mus musculus, po, Table 5; read-out: ED50 Oral Administration
Protocol: The anticonvulsant activity of compound S ((S)-(+)-2,2-dimethylcyclopropane-carboxamide) was tested using the Frings audiogenic seizure-susceptible mouse. […] Compound S, which is a solution at 300 mg/kg and a suspension at 600 mg/kg, was administered to the mice at the doses indicated in Tables 1-3. Compound S was obtained from Sigma-Aldrich Chemical Co. (Aldrich catalog number: 43,463-9).
At the time of testing, individual mice were placed into a round Plexiglas chamber and exposed to a sound stimulus of 110 decibels, 11 kHz, for 20 seconds. Mice not displaying tonic hindlimb extensions upon exposure to the sound stimulus were considered protected. In addition, the seizure score for each mouse was recorded as: (1) running for less than 10 seconds; (2) running for greater than 10 seconds; (3) clonic activity of limbs and/or vibrissae; (4) forelimb extension/hindlimb flexion; and (5) hindlimb extension. The average seizure score was calculated for each group of mice used in the dose-response study.
The anticonvulsant activity of compounds I, W, X, and AA was tested using the Frings audiogenic seizure-susceptible mouse model as described in Example 23. […] The therapeutic index relates to separation between therapeutic efficacy and CNS toxicity as measured by motor impairment in the rotarod performance test.

Frings mice = assay: Rotarod test of motor impairment (toxicity) in the Frings study; assay type: in vivo; conditions: Frings, mouse, in vivo, po
Protocol: At each dose, the mice were also tested on a rotarod for testing of motor impairment (toxicity). Testing for motor impairment on the rotarod involved placing a mouse for a three-minute trial period on a one-inch diameter rod rotating at six revolutions per minute. If the mouse fell off of the rotating rod three times within the three-minute time period, the dose was considered a toxic response.
The therapeutic index relates to separation between therapeutic efficacy and CNS toxicity as measured by motor impairment in the rotarod performance test.

male Swiss-Webster mice [2] = assay: Maximal electroshock (MES)-induced tonic extension seizure test; assay type: in vivo, mouse; conditions: 300 mg/kg p.o.
Protocol: In the MES test, a substance is administered orally (p.o.) and is tested for efficacy against maximal electroshock (MES)-induced tonic extension seizures. Adult male Swiss-Webster mice (each 20-25 g of body weight) were used. The mice were housed in Association for the Assessment and Accreditation of Laboratory Animal Care-approved facilities under a constant 12-hour light/dark cycle with a constant temperature of 21° C.-23° C. and a relative humidity of 30% to 50%. All animals were permitted free access to standard laboratory chow (Prolab RMH 3000; PMI Nutrition International, LLC, Brentwood, Mo.) and water, except when removed from their home cages for testing. All mice were handled in a manner consistent with the recommendations in the National Research Council Publication Guide for the Care and Use of Laboratory Animals.
(§1) Test compounds (Compound S, Compound W, the S-enantiomer of Compound AA, the R-enantiomer of Compound AA, Compound HH, Compound JJ, and Compound MM) were dissolved in saline containing 0.5% methylcellulose. To determine time to peak effect, 300 mg/kg of each of the test compounds was suspended in 0.5% methylcellulose in saline and administered orally to a group of 20 mice. For comparative purposes, isovaleramide was also tested. At various times (0.25, 0.5, 1, 2, and 4 hours) after p.o. administration, individual mice were placed on the rotarod and tested for their ability to maintain balance on a rotating (6 rpm) 2.5-cm diameter knurled rod for 60 seconds. Mice that fell three times in this 60-second trial were considered impaired.
Following rotarod testing, the mice were tested in the maximal electroshock (MES)-induced tonic extension seizures test. For this test, a drop of electrolyte solution (0.5% butacaine sulfate in 0.9% saline) was placed on the eyes of each mouse prior to placement of corneal electrodes. The mice were restrained by gripping the loose skin on their dorsal surface and saline-coated corneal electrodes were held lightly against the two corneas. Each mouse received an electrical stimulation (50 mAmp, 50 Hz current, 0.2 sec) delivered through a silver-coated corneal electrode using an electroshock machine as originally described by Woodbury and Davenport (Arch Int. Pharmacodyn. Ther., 92:97-104, 1952). […] A tonic seizure was defined as a hindlimb extension in excess of 90 degrees from the plane of the body. Results were treated in a quantal manner. […] ED50's (the effective dose at which 50% of the mice were protected) were determined for Compounds W and HH by administering various doses (30, 100, 300 mg/kg) at the previously determined time to peak effect, as shown in Table 11.

male Swiss-Webster mice [3] = assay: Rotarod impairment test before MES testing; assay type: in vivo, mouse; conditions: 300 mg/kg p.o.
Protocol: as §1

| Compound | ED50 [1] [mg/kg] | Therapeutic Index (Frings mice) | # P/# T (protected/tested) (male Swiss-Webster mice [2]; 0.25 hours) | # P/# T (protected/tested) (male Swiss-Webster mice [2]; 0.5 hours) | # P/# T (protected/tested) (male Swiss-Webster mice [2]; 1 hour) | # P/# T (protected/tested) (male Swiss-Webster mice [2]; 2 hours) | # P/# T (protected/tested) (male Swiss-Webster mice [2]; 4 hours) | # I/# T (impaired/tested) (male Swiss-Webster mice [3]; 0.25 hours) | # I/# T (impaired/tested) (male Swiss-Webster mice [3]; 0.5 hours) | # I/# T (impaired/tested) (male Swiss-Webster mice [3]; 1 hour) | # I/# T (impaired/tested) (male Swiss-Webster mice [3]; 2 hours) | # I/# T (impaired/tested) (male Swiss-Webster mice [3]; 4 hours) |
| --- | --- | --- | --- | --- | --- | --- | --- | --- | --- | --- | --- | --- |
| CC(C)C(C)C(N)=O (racemic) [AA (cis and trans mixture)] | 140 | – | – | – | – | – | – | – | – | – | – | – |
| CC(C)[C@H](C)C(N)=O [AA (R- enantiomer)] | 84.2 | >4-fold | 0/4 | 0/4 | 0/4 | 0/4 | 0/4 | 3/4 | 3/4 | 0/4 | 3/4 | – |
| CC(C)[C@@H](C)C(N)=O [AA (S- enantiomer)] | 84.1 | >4-fold | 3/4 | 0/4 | 1/4 | 1/4 | 0/4 | 0/4 | 1/4 | 0/4 | 0/4 | 0/4 |
| CC(C)CC(=O)NCC(N)=O [Compound I] | < 1000 | – | – | – | – | – | – | – | – | – | – | – |
| CC(C)C(C)(C)C(N)=O [Compound JJ] | – | – | 1/4 | 0/4 | 0/4 | 0/4 | 0/4 | 1/4 | 2/4 | 1/4 | 0/4 | 0/4 |
